Reference: US9533973B2, “Allosteric modulators of 5-hydroxytryptamine 2C receptor (5-HT2CR)” (THE BOARD OF REGENTS OF THE UNIVERSITY OF TEXAS SYSTEM, priority 2011, dated 2017)
Entries after “also recorded” stand apart in the source; their conditions may differ.

Tests used:
[1] = Solubility of representative compounds (Table 1); type: physicochemical; conditions: solvents listed
5-HT2CR = molecular target: T1, 5-HT2CR (Homo sapiens, UniProt P28335); experiment: 5-HT induced intracellular calcium (Cai++) release assay in live 5-HT2CR-CHO cells; type: cell-based; parameters: expressed in transfected cells; conditions: 5-HT2CR-CHO cells
T1 sequence (P28335 33-458): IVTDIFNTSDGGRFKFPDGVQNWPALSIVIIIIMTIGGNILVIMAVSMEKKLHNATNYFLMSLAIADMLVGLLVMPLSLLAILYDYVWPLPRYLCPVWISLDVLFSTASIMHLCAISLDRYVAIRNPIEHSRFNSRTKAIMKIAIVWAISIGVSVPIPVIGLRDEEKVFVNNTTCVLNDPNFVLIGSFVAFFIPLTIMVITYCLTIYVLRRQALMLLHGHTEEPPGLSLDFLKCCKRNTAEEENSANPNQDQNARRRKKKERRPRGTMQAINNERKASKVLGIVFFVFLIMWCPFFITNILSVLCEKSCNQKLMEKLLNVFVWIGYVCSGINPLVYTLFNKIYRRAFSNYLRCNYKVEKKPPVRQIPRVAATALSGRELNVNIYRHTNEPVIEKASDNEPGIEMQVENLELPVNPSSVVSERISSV
Procedure: Selected results for the biological characterization of the synthesized compounds can be found in Ding et al., ACS Chem. Neurosci., 3, 538-545, 2012, and also described herein. The biological activity is assessed using an intracellular calcium (Cai^++) release assay. The best-characterized intracellular signaling pathway of the 5-HT2CR is the activation of phospholipase C (PLCβ) via Gαq/11 proteins and the production of diacylglycerol (DAG) and inositol-1,4,5-trisphosphate (IP3), leading to increased Cai^++ release from intracellular stores (Berg et al., Neuropharmacology 55, 969-76, 2008). Functional characterization of our synthetic PNU-69176E (CYD-1-78-2) and its diastereomer CYD-1-78-1 was determined by utilizing an Cai^++ release assay in live cells in which Cai^++ levels can be regarded as an outcome measure of activation of the 5-HT2CR signaling pathway (Berg et al., Neuropharmacology 55, 969-76, 2008). […] In addition, 1 nM of compound CYD-1-78-2 enhanced the Cai^++ response at low concentrations of 5-HT [10^11-3×10^−10 M; F(15,55)=16.73, p<0.01; FIG. 2]. […] Neither compound CYD-1-78-2 [F(10,68)=0.81, n.s.] nor the diastereomer CYD-1-78-1 [F(10,34)=0.76, n.s.] in concentrations up to 10^−5 M induced Cai^++ release in the 5-HT2CR—CHO cells in the absence of 5-HT (FIG. 3). This profile for compounds CYD-1-78-2 and −1 in 5-HT2CR—CHO cells was distinguished from that seen in 5-HT2AR—CHO cells in which neither compound alone or in the presence of 5-HT (compound CYD-1-78-1, F(10,43)=0.78; compound CYD-1-78-2, F(10,55)=1.27; FIG. 4) altered Cai^++ release (Ding et al., ACS Chem. Neurosci. 3, 538-545, 2012).
The Chinese hamster ovary (CHO) cell line stably transfected with 5-HT2CR was a generous gift of K. Berg and W. Clarke (University of Texas Health Science Center, San Antonio) (K. A. Berg, W. P. Clarke, C. Sailstad, A. Saltzman and S. Maayani, Mol. Pharmacol. 1994, 46 (3), 477-484; Ding et al., ACS Chem. Neurosci. 3, 538-545, 2012). Cells were grown at 37° C., 5% CO2 and 85% relative humidity in GlutaMax α-MEM (Invitrogen, Carlsbad Calif.), 5% fetal bovine serum (Atlanta Biologicals, Atlanta Ga.), 100 μg/mL hygromycin (Mediatech, Manassas Va.) and were passaged when they reached 80% confluence.
Changes in Cai^++ levels were determined using the calcium sensitive dye Calcium 4 (FLIPR No-wash kit, Molecular Devices, Sunnyvale, Calif., part #R8142). Cells were plated in serum-replete medium at 20,000 cells/well in black-sided, clear bottom 96-well tissue culture plates and were fed ˜24 hrs later with serum-free medium. Following overnight incubation, medium was removed and replaced with 40 μL of fresh serum-free medium plus 40 μL Calcium 4 dye solution in Hank's balanced saline solution (HBSS, without CaCl2 or MgCl2) supplemented with 2.5 mM water soluble probenicid (Invitrogen) to inhibit extracellular transport of the dye. Plates were incubated for 60 min at 37° C. and 60 min at room temperature in the dark. Fluorescence (λex=485 nm, λem=525 nm) was measured with a FlexStation3 (Molecular Devices). A baseline was established for each well during the initial segment of each run. Addition of 20 μL of 5× concentrated tested compound occurred at 17 sec and fluorescence was recorded every 1.7 sec for 90 sec to determine any innate agonist activity. This first round of 90 sec recordings provided a 20 min preincubation period. […] Maximum peak height was determined by the FlexStation software (SoftMax Pro 5.2) for each well and was normalized to vehicle control.

Question: For `CS[C@H]1OC([C@@H](NC(=O)C2CNCCN2c2ccccc2)[C@H](C)Cl)[C@H](O)[C@H](O)[C@H]1O` (stereo partly drawn) [CYD-1-82, 1-Phenyl-piperazine-2-carboxylic acid [2-chloro-1-(3,4,5-trihydroxy-6-methylsulfanyl-tetrahydro-pyran-2-yl)-propyl]amide], which Solubility [1] is on record?
Answer: EtOH, DMSO

Question: And the “effect on 5-HT-induced Cai++ release” value (5-HT2CR; positive allosteric modulation)?
Answer: enhanced; also recorded: potentiated

Question: What about the EC50 (5-HT2CR; 5-HT-induced Cai++ release) of the same compound?
Answer: 8 ± 4 nM
